In patent publication US8586629B2, “Composition for the treatment of oxidative stress” (Probiox SA, priority 2008, dated 2013):
Read-outs that look alike come from different tables or passages of the source.

What was measured:
[1] = tested on: oxidized LDL; experiment: Clinical study: plasma oxidized LDL in women under Yasmin; type: in vivo; settings: for number of responders (minimum of 35% decrease of oxLDL): T4 versus T0; for effect on LDL oxidation: general conclusion; for oxLDL at T4 compared to T0: plasma, within arm
Description: (§1) Subjects: 60 women were selected on the basis of the below-mentioned selection criteria and divided into 4 groups. Keeping a possible dropout in mind (in total 45 women completed the study), these groups were designed such, that by the end of the study; groups SOCO_A and SOCO_D would contain 15 subjects; and groups SOCO_B and SOCO_C would contain 10 subjects.
(§2) Inclusion Criteria: • Age: between 18 and 35 years • Informed consent collected • Patients under oral contraception with Yasmin for at least three months
(§3) Whereby one menstrual cycle is flanked by 2 vertical lines and, whereby: • SOCO_A) represents the intake of a combination of a Zinc supplement and a Quercetin supplement • SOCO_B) represents the intake of a Zinc supplement • SOCO_C) represents the intake of a Quercetin supplement • SOCO_D) represents the intake of a placebo supplement
(§4) And whereby: • V1 represents a first visit between day −42 and day −14 • V2 represents a second visit between day −7 and −3 • V3 represents a third visit between day 23 and 27 • V4 represents a fourth visit between day 51 and 55 • V5 represents a fifth visit between day 113 and 117
(§5) SOCO_A: Quercetin DC 500 mg • Zinc picolinate 20% (elementary 22.5 mg) 113 mg • Magnesium stearate 3 mg • 1 capsule per day during 112 days
(§6) SOCO_B: Zinc picolinate 20% (elementary 22.5 mg) 113 mg • Dicalcium phosphate 125 mg • Cellulose microcrystals 375 mg • Magnesium stearate 3 mg • 1 capsule per day during 112 days
(§7) SOCO_C: Quercetin DC 500 mg • Dicalcium phosphate 85 mg • Cellulose microcrystals 28 mg • Magnesium stearate 3 mg • 1 capsule per day during 112 days
(§8) SOCO_D: Dicalcium phosphate 460 mg • Cellulose microcrystals 153 mg • Magnesium stearate 3 mg • 1 capsule per day during 112 days
(§9) A blood sample (2-3 tubes of +/−5 ml) was collected during each visit. A maximum of 60 ml blood was required per subject for the whole study. Blood samples for haematological and biochemical tests were collected during V1 and V5, and blood samples for oxidative stress assessment were collected during V2, V3, V4 and V5.
(§10) Plasma concentration of lipid peroxides, copper and zinc were determined in blood samples taken at V2, V3, V4 and V5. Plasma concentration of oxidized LDL was determined in blood samples taken at V2 and V5. The expression of 200 genes involved in oxidative stress were determined via quantitative measurements of mRNA expression by microarray, in blood samples taken at V2 and V5.

[2] = tested on: LDL; settings: in vitro; cited from earlier work
[3] = supplementation; cited from earlier work
[4] = 6 week supplementation; cited from earlier work
[5] = zinc supplemented group; cited from earlier work
[6] = zinc supplementation; cited from earlier work
[7] = tested on: LDL; settings: zinc supplementation; cited from earlier work
[8] = hypobaric hypoxia studies and COPD study; cited from earlier work
[9] = Clinical study: plasma lipid peroxides, copper and zinc in women under Yasmin; type: in vivo
Description: as §1, §2, §3, §4, §5, §6, §7, §8, §9, §10

Compound: O=c1c(O)c(-c2ccc(O)c(O)c2)oc2cc(O)cc(O)c12 [quercetin alone, Quercetin]
- number of responders (minimum of 35% decrease of oxLDL) [1]: 0%
- effect on LDL oxidation [1]: weak effect
- oxLDL at T4 compared to T0 [1]: weak significant decrease

Compound: O=c1c(O)c(-c2ccc(O)c(O)c2)oc2cc(O)cc(O)c12 [quercetin]
- inhibition of oxidative damage to LDL [2]: most effective inhibitor
- protection from oxidative stress induced damage [3]: does not exert protection

Compound: C[C@@H]1O[C@@H](OC[C@H]2O[C@@H](Oc3c(-c4ccc(O)c(O)c4)oc4cc(O)cc(O)c4c3=O)[C@H](O)[C@@H](O)[C@@H]2O)[C@H](O)[C@H](O)[C@H]1O [rutin]
- levels of three plasma flavonoids [4]: significantly elevated

Compound: [Zn] [zinc]
- incidence of infection [5]: significantly lower
- lipid peroxides [5]: significant diminution
- oxidative stress markers [6]: did not alter
- Cu-induced LDL oxidation [7]: no effects
- oxidative stress markers [8]: no effects

Compound: Zinc picolinate [Zinc alone]
- mean relative change in Cu/Zn between T4 and T0 (mean Cu/Zn decrease) ([9]; compared to placebo): significant
- mean relative change in Zn between T4 and T0 (mean zinc increase) ([9]; compared to placebo): significant
- mean relative change in Cu/Zn between T4 and T0 (mean Cu/Zn decrease) ([9]; compared to quercetin alone): significant
- mean relative change in Zn between T4 and T0 (mean zinc increase) ([9]; compared to quercetin alone): significant
- number of responders (minimum of 35% decrease of oxLDL) [1]: 0%
- effect on LDL oxidation [1]: No effect
- oxLDL at T4 compared to T0 [1]: no significant changes
